From ChEMBL document CHEMBL1629466, “Synthesis and biological activity of some antitumor active derivatives from glycyrrhetinic acid” (Eur J Med Chem, 2010)
Calls of active or inactive are those of the source. The rule behind the calls is not given here.

What was measured:
Type in all cases: functional, cell-based
[1] = Cytotoxicity against human 518A2 cells after 96 hrs by sulforhodamine B assay
8505C = test: Cytotoxicity against human 8505C cells after 96 hrs by sulforhodamine B assay
[2] = Cytotoxicity against human A253 cells after 96 hrs by sulforhodamine B assay
A2780 [3] = test: Cytotoxicity against human A2780 cells after 96 hrs by sulforhodamine B assay
A549 = test: Cytotoxicity against human A549 cells after 96 hrs by sulforhodamine B assay
DLD-1 = test: Cytotoxicity against human DLD1 cells after 96 hrs by sulforhodamine B assay
FaDu = test: Cytotoxicity against human FADU cells after 96 hrs by sulforhodamine B assay
HCT-116 = test: Cytotoxicity against human HCT116 cells after 96 hrs by sulforhodamine B assay
HCT-8 = test: Cytotoxicity against human HCT8 cells after 96 hrs by sulforhodamine B assay
HT-29 = test: Cytotoxicity against human HT-29 cells after 96 hrs by sulforhodamine B assay
[4] = Cytotoxicity against human Lipo cells after 96 hrs by sulforhodamine B assay
MCF7 = test: Cytotoxicity against human MCF7 cells after 96 hrs by sulforhodamine B assay
SW-1736 = test: Cytotoxicity against human SW1736 cells after 96 hrs by sulforhodamine B assay
SW480 = test: Cytotoxicity against human SW480 cells after 96 hrs by sulforhodamine B assay
A-431 [5] = test: Induction of apoptosis in human A431 cells assessed as DNA fragmentation at IC90 concentration after 24 hrs by gel electrophoresis analysis
A2780 [6] = test: Induction of apoptosis in human A2780 cells assessed as DNA fragmentation at IC90 concentration after 24 hrs by gel electrophoresis analysis
A-431 [7] = test: Induction of apoptosis in human A431 cells at IC90 concentration after 24 hrs by trypan blue exclusion assay
A2780 [8] = test: Induction of apoptosis in human A2780 cells at IC90 concentration after 24 hrs by trypan blue exclusion assay

SMILES | IC50 [1] | IC50 (8505C) | IC50 [2] | IC50 (A2780 [3]) | IC50 (A549) | IC50 (DLD-1) | IC50 (FaDu) | IC50 (HCT-116) | IC50 (HCT-8) | IC50 (HT-29) | IC50 [4] | IC50 (MCF7) | IC50 (SW-1736) | IC50 (SW480) | Activity (A-431 [5]) | Activity (A2780 [6]) | Activity (A-431 [7]) | Activity (A2780 [8])
COC(=O)[C@@]1(C)CC[C@]2(C)CC[C@]3(C)C(=CC(=O)[C@@H]4[C@@]5(C)CC[C@H](OC(=O)CNCCCCCN)C(C)(C)[C@@H]5CC[C@]43C)[C@@H]2C1 | 2.02 µmol | 1.78 µmol | 2.27 µmol | 2 µmol | 2.52 µmol | 2.4 µmol | 3.3 µmol | 2.19 µmol | 1.38 µmol | 1.28 µmol | 1.93 µmol | 1.79 µmol | 2.69 µmol | 1.91 µmol | – | – | – | –
COC(=O)[C@@]1(C)CC[C@]2(C)CC[C@]3(C)C(=CC(=O)[C@@H]4[C@@]5(C)CC[C@H](O)C(C)(C)[C@@H]5CC[C@]43C)[C@@H]2C1 | 27.54 µmol | 26.07 µmol | 19.42 µmol | 25.54 µmol | 23.5 µmol | 26.12 µmol | 23.41 µmol | 22.1 µmol | 24.36 µmol | 27.54 µmol | 20.47 µmol | 22.14 µmol | 34.87 µmol | 16.08 µmol | – | – | – | –
COC(=O)[C@@]1(C)CC[C@]2(C)CC[C@]3(C)C(=CC(=O)[C@@H]4[C@@]5(C)CC[C@H](OC(=O)CNCCCCN)C(C)(C)[C@@H]5CC[C@]43C)[C@@H]2C1 | 2.55 µmol | 2.12 µmol | 2.56 µmol | 2.43 µmol | 3.31 µmol | 2.66 µmol | 3.51 µmol | 2.41 µmol | 1.51 µmol | 1.69 µmol | 2.57 µmol | 2.45 µmol | 3.3 µmol | 2.54 µmol | – | – | – | –
COC(=O)[C@@]1(C)CC[C@]2(C)CC[C@]3(C)C(=CC(=O)[C@@H]4[C@@]5(C)CC[C@H](OC(=O)CNCCCCCCCCN)C(C)(C)[C@@H]5CC[C@]43C)[C@@H]2C1 | 3.49 µmol | 3.35 µmol | 3.01 µmol | 2.8 µmol | 4.08 µmol | 3.96 µmol | 4.26 µmol | 3.53 µmol | 2.92 µmol | 2.76 µmol | 4.36 µmol | 3.89 µmol | 4.09 µmol | 3.93 µmol | – | – | – | –
COC(=O)[C@@]1(C)CC[C@]2(C)CC[C@]3(C)C(=CC(=O)[C@@H]4[C@@]5(C)CC[C@H](OC(=O)CNCCCCCCCCCN)C(C)(C)[C@@H]5CC[C@]43C)[C@@H]2C1 | 3.12 µmol | 6.18 µmol | 4.65 µmol | 3.3 µmol | 2.23 µmol | 4.5 µmol | 5.54 µmol | 3.44 µmol | 2.42 µmol | 2.06 µmol | 5.48 µmol | 3.33 µmol | 3.3 µmol | 5.74 µmol | – | – | – | –
COC(=O)[C@@]1(C)CC[C@]2(C)CC[C@]3(C)C(=CC(=O)[C@@H]4[C@@]5(C)CC[C@H](OC(=O)CNCCCN)C(C)(C)[C@@H]5CC[C@]43C)[C@@H]2C1 | 3.79 µmol | 3.37 µmol | 3.64 µmol | 4.39 µmol | 5.15 µmol | 4.39 µmol | 5.57 µmol | 4.3 µmol | 2.37 µmol | 2.9 µmol | 3.89 µmol | 3.55 µmol | 6.05 µmol | 3.68 µmol | – | – | – | –
COC(=O)[C@@]1(C)CC[C@]2(C)CC[C@]3(C)C(=CC(=O)[C@@H]4[C@@]5(C)CC[C@H](OC(=O)CNCCCCCCN)C(C)(C)[C@@H]5CC[C@]43C)[C@@H]2C1 | 1.09 µmol | 1.68 µmol | 1.12 µmol | 1.36 µmol | 1.59 µmol | 0.91 µmol | 1.78 µmol | 1.17 µmol | 0.62 µmol | 0.59 µmol | 1.59 µmol | 1.17 µmol | 1.61 µmol | 2.25 µmol | Active | Active | Active | Active
CC1(C)[C@@H](O)CC[C@]2(C)[C@H]3C(=O)C=C4[C@@H]5C[C@@](C)(C(=O)O)CC[C@]5(C)CC[C@@]4(C)[C@]3(C)CC[C@@H]12 [ENOXOLONE] | 83.92 µmol | 86.5 µmol | 80.78 µmol | 74.57 µmol | 82.76 µmol | 81.21 µmol | 84.55 µmol | 78.83 µmol | 78.85 µmol | 80.09 µmol | 81.44 µmol | 84.7 µmol | 76.93 µmol | 86.8 µmol | – | – | – | –
COC(=O)[C@@]1(C)CC[C@]2(C)CC[C@]3(C)C(=CC(=O)[C@@H]4[C@@]5(C)CC[C@H](OC(=O)CNCCCCCCCN)C(C)(C)[C@@H]5CC[C@]43C)[C@@H]2C1 | 1.27 µmol | 2.13 µmol | 1.74 µmol | 1.14 µmol | 2.21 µmol | 1.25 µmol | 2.2 µmol | 1.7 µmol | 0.89 µmol | 0.86 µmol | 1.44 µmol | 0.98 µmol | 2.24 µmol | 2.24 µmol | – | – | – | –
COC(=O)[C@@]1(C)CC[C@]2(C)CC[C@]3(C)C(=CC(=O)[C@@H]4[C@@]5(C)CC[C@H](OC(=O)CNCCCCCCCCCCN)C(C)(C)[C@@H]5CC[C@]43C)[C@@H]2C1 | 4.33 µmol | 7.6 µmol | 5.48 µmol | 3.63 µmol | 5.16 µmol | 5.53 µmol | 5.65 µmol | 3.86 µmol | 4.07 µmol | 2.73 µmol | 6.93 µmol | 2.68 µmol | 3.73 µmol | 4.73 µmol | – | – | – | –
CC1(C)[C@@H](OC(=O)CCl)CC[C@]2(C)[C@H]3C(=O)C=C4[C@@H]5C[C@@](C)(C(=O)O)CC[C@]5(C)CC[C@@]4(C)[C@]3(C)CC[C@@H]12 | 25.43 µmol | 26.08 µmol | 25.54 µmol | 23.77 µmol | 24.8 µmol | 17.36 µmol | 23.56 µmol | 14.41 µmol | 13.39 µmol | 16.91 µmol | 25.39 µmol | 25.11 µmol | 16.42 µmol | 25.91 µmol | – | – | – | –
COC(=O)[C@@]1(C)CC[C@]2(C)CC[C@]3(C)C(=CC(=O)[C@@H]4[C@@]5(C)CC[C@H](OC(=O)CCl)C(C)(C)[C@@H]5CC[C@]43C)[C@@H]2C1 | 5.24 µmol | 15.86 µmol | 6.19 µmol | 6.01 µmol | 8.39 µmol | 6.13 µmol | 12.44 µmol | 5.13 µmol | 3.97 µmol | 5.34 µmol | 14.55 µmol | 6.69 µmol | 3.14 µmol | 8.92 µmol | – | – | – | –
